# According to patent US11578055B2, “Triazacyclododecansulfonamide (“TCD”)-based protein secretion inhibitors” (KEZAR LIFE SCIENCES, priority 2018, dated 2023):
# pEC50, pIC50: −log10 of the molar value. Where two headings read alike, the source gives them in different places.
# What was measured:
# [1] = test system: full length TNFα (amino acids 1-233) fused to Gaussia Luciferase; assay: Dox Induced TNFα-FL-Gluc Assay; format: cell-based; settings: 24 hr, read-out: 24 hr Dox Inducible TNFaFLGluc 293FRT/TO: Mean IC50
# Summary of the method: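 Compounds diluted in DMSO/medium with doxycycline were incubated at 37° C, 5% CO2 with 293 T-REx cells stably carrying a Tet-regulated TNFα(1-233)-Gaussia luciferase construct. Data for structures drawn without stereochemistry refer to stereoisomer mixtures.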
# [2] = In Vitro Microsome Stability Assay (human); format: in vitro ADME
# Summary of the method: (§1)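 The value reported is the percentage of parent left after 30 min, calculated from analyte/IS peak-area ratios relative to time zero by LC-MS/MS. Incubations ran at 37° C in 0.1 M potassium phosphate with NADPH and microsomes (stock 20 mg/mL), with compound added from a 0.25 mM DMSO stock. Acetonitrile containing IS stopped the reactions.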
# [3] = test system: PD1 signal sequence plus 10 amino acids fused to Gaussia Luciferase (PD1-ss+10aa/Gaussia Luciferase); assay: Dox Induced PD1-ss-Gluc Assay; format: cell-based; settings: 24 hr, read-out: 24 hr Dox Inducible PD1ssGluc 293FRT/TO: Mean IC50
# Summary of the method: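 Compound dilutions in DMSO/media containing doxycycline were applied to a stable, inducible 293 T-REx line carrying the luciferase fusion, then incubated at 37 °C, 5% CO2. Where stereochemistry is not drawn, values relate to isomer mixtures.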
# [4] = test system: full length IL-2 (amino acids 1-153) fused to Gaussia Luciferase; assay: Dox Induced IL2-FL-Gluc Assay; format: cell-based; settings: 24 hr, read-out: 24 hr Dox Inducible IL2FLGluc 293FRT/TO: Mean IC50
# Summary of the method: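 Compounds in DMSO/media with doxycycline were added to cells plated the previous day and incubated at 37° C, 5% CO2. Cells: stable Flp-In 293 T-REx line, Dox-regulated expression of IL-2 (aa 1-153) fused at its C-terminus to Gaussia luciferase.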
# [5] = In Vitro Microsome Stability Assay (mouse); format: in vitro ADME
# Summary of the method: as §1
# [6] = In Vitro Microsome Stability Assay (rat); format: in vitro ADME
# Summary of the method: as §1
# [7] = test system: multiple myeloma cell line NCl-H929; assay: H929 Cell Viability Assay; format: cell-based, human; settings: Homo sapiens, NCI-H929, 48 h
# Summary of the method: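 Viability was determined by CellTiter-Glo luminescence after a 48 h, 37 °C exposure of NCI-H929 cells to serial compound dilutions in medium containing 10% FBS. Where stereochemistry is not shown, values refer to a mix of stereoisomers.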
# [8] = test system: multiple myeloma cell line U266B1; assay: U266 Cell Viability Assay; format: cell-based, human; settings: Homo sapiens, U-266, 48 hr
# Summary of the method: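 Viability was measured by CellTiter-Glo luminescence after 48 h compound exposure at 37° C, 5% CO2. The cells were U266B1 multiple myeloma cells grown in RPMI 1640 plus 10% FBS. Where stereochemistry is not shown, values apply to the stereoisomer mixture.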
# [9] = In Vitro Microsome Stability Assay (monkey); format: in vitro ADME
# Summary of the method: as §1
# [10] = human liver microsomes, 30 min w/ NADPH
# [11] = mouse liver microsomes, 30 min w/ NADPH
# [12] = rat liver microsomes, 30 min w/ NADPH
# [13] = monkey liver microsomes, 30 min w/ NADPH
# [14] = H929, read-out: 48 hr H929 Viability Celltiter-Glo: Mean EC50
# [15] = U266, read-out: 48 hr U266 Viability Celltiter-Glo: Mean EC50
Structure (SMILES),"pIC50 ([1]; Dox inducible, 293FRT/TO cells)","Liver Microsome Stability-% Left after 30 min w/ NADPH (%) Human [2, 10] [%]","pIC50 ([3]; Dox inducible, 293FRT/TO cells)","pIC50 ([4]; Dox inducible, 293FRT/TO cells)","Liver Microsome Stability-% Left after 30 min w/ NADPH (%) Mouse [5, 11] [%]","Liver Microsome Stability-% Left after 30 min w/ NADPH (%) Rat [6, 12] [%]","pEC50 ([7]; H929, Celltiter-Glo)","pEC50 ([8]; U266, Celltiter-Glo)","Liver Microsome Stability-% Left after 30 min w/ NADPH (%) Monkey [9, 13] [%]",pIC50 ([1]; 293FRT/TO),"Liver Microsome Stability-% Left after 30 min w/ NADPH (%) Human ([2]; human, 30 min, NADPH) [%]",pIC50 ([3]; 293FRT/TO),pIC50 ([4]; 293FRT/TO),"Liver Microsome Stability-% Left after 30 min w/ NADPH (%) Mouse ([5]; mouse, 30 min, NADPH) [%]","Liver Microsome Stability-% Left after 30 min w/ NADPH (%) Rat ([6]; rat, 30 min, NADPH) [%]","pEC50 [7, 14]","pEC50 [8, 15]","Liver Microsome Stability-% Left after 30 min w/ NADPH (%) Monkey ([9]; monkey, 30 min, NADPH) [%]"
CC(C)CN1CCCN(S(=O)(=O)c2ccc(N(C)C)cc2)C[C@H](C)CN(S(=O)(=O)N2CCc3cc(Cl)ccc3C2)CCC1 [A152],5.99,3.69,7.09,6.76,5.06,3.6,5.66,< 4.60,3.22,–,–,–,–,–,–,–,–,–
"COc1c(N2CCN(S(=O)(=O)N3CCCN(CC4CCCCC4)CCCN(S(=O)(=O)c4ccc(N(C)C)cc4)C[C@H](C)C3)CC2)ccc(F)c1F [A174, 4-{[(3S)-9-(cyclohexylmethyl)-5-{[4-(3,4-difluoro-2-methoxyphenyl)piperazin-1-yl]sulfonyl}-3-methyl-1,5,9-triazacyclododecan-1-yl]sulfonyl}-N,N-dimethylaniline]",6.25,41.7,7.80,7.27,36.9,44.4,5.73,< 4.60,28.4,–,–,–,–,–,–,–,–,–
C[C@H]1CN(S(=O)(=O)c2ccc3oncc3c2)CCCN(CC2CCCCC2)CCCN(S(=O)(=O)N2CCc3cc(Cl)ccc3C2)C1 [A180],< 4.60,0.80,5.56,4.86,0.44,1.97,4.70,< 4.60,0.08,–,–,–,–,–,–,–,–,–
"C=C1CN(S(=O)(=O)c2ccc(N(C)C)cc2)CCCN(CC2CCCCC2)CCCN(S(=O)(=O)N2Cc3ccc(Cl)cc3C2)C1 [A89, 4-({5-[(5-chloro-2,3-dihydro-1H-isoindo1-2-yl)sulfonyl]-9-(cyclohexylmethyl)-3-methylidene-1,5,9-triazacyclododecan-1-yl}sulfonyl)-N,N-dimethylaniline]",–,–,–,–,–,–,–,–,–,5.92,18.5,7.09,6.73,17.1,22.2,5.76,< 4.60,13.5
"Cc1cccc2c1CCN(S(=O)(=O)N1CCCN(CC3CCCCC3)CCCN(S(=O)(=O)c3ccc(N(C)C)cc3)C[C@H](C)C1)C2 [A166, 4-{[(3S)-9-(cyclohexylmethyl)-3-methyl-5-[(5-methyl-1,2,3,4-tetrahydroisoquinolin-2-yl)sulfonyl]-1,5,9-triazacyclododecan-1-yl]sulfonyl}-N,N-dimethylaniline]",6.56,14.0,7.78,7.52,26.4,31.3,6.26,< 4.60,18.7,–,–,–,–,–,–,–,–,–
"C[C@H]1CN(S(=O)(=O)c2ccc(N(C)C)cc2)CCCN(CCC(F)(F)F)CCCN(S(=O)(=O)N2CCc3cc(Cl)ccc3C2)C1 [A165, 4-{[(3S)-5-[(6-chloro-1,2,3,4-tetrahydroisoquinolin-2-yl)sulfonyl]-3-methyl-9-(3,3,3-trifluoropropyl)-1,5,9-triazacyclododecan-1-yl]sulfonyl}-N,N-dimethylaniline]",5.73,2.23,6.88,6.53,14.9,11.9,5.39,< 4.60,12.8,–,–,–,–,–,–,–,–,–
"C[C@H]1CN(S(=O)(=O)c2ccc(N(C)C)cc2)CCCN(CC2CCCCC2)CCCN(S(=O)(=O)N2CC[C@H](c3ccccc3)C2)C1 [A91, 4-{[(3S)-9-(cyclohexylmethyl)-3-methyl-5-{[(3 R)-3-phenylpyrrolidin-1-yl]sulfonyl}-1,5,9-triazacyclododecan-1-yl]sulfonyl}-N,N-dimethylaniline]",–,–,–,–,–,–,–,–,–,5.61,23.7,6.71,6.42,25.4,21.6,5.52,4.83,21.8
"C[C@H]1CN(S(=O)(=O)c2ccc(N(C)C)cc2)CCCN(CC2CCCC2)CCCN(S(=O)(=O)N2CCc3cc(Cl)ccc3C2)C1 [A157, 4-{[(3S)-5-[(6-chloro-1,2,3,4-tetrahydroisoquinolin-2-yl)sulfonyl]-9-(cyclopentylmethyl)-3-methyl-1,5,9-triazacyclododecan-1-yl]sulfonyl}-N,N-dimethylaniline]",6.23,21.1,7.63,7.11,23.3,32.2,6.07,< 4.60,27.3,–,–,–,–,–,–,–,–,–
"C[C@H]1CN(S(=O)(=O)c2ccc(N(C)C)cc2)CCCN(CC2CCCCC2)CCCN(S(=O)(=O)N2CC(c3ccccc3)C2)C1 [A101, 4-{[(3S)-9-(cyclohexylmethyl)-3-methyl-5-[(3-phenylazetidin-1-yl)sulfonyl]-1,5,9-triazacyclododecan-1-yl]sulfonyl}-N,N-dimethylaniline]",5.47,30.2,6.66,6.25,20.8,25.4,< 4.60,< 4.60,18.8,–,–,–,–,–,–,–,–,–
